Test results as given in US20260092086A1, “ANTIMICROBIAL LASSO PEPTIDES” (priority 2022, published 2026).
In brackets after ≈: the same amount, converted by molar mass. Like-named read-outs stand apart in the source and are kept apart here. Where a SMILES comes first, the peptide text is derived from it.

Assays:
[1] = test system: Enterobacter asburiae MGH243; format: cell-based
Procedure: (§1) Cloacaenodin was evaluated against several common laboratory strains as well as commercially acquired strains using a spot-on-lawn assay.^45 Strains were streaked out onto LB agar plates and incubated overnight at their recommended temperatures. A single colony was then used to inoculate an overnight culture in 5 mL of LB broth. After shaking at 250 rpm at the recommended temperature for each strain, 50 μL of the overnight culture was used to inoculate 5 mL of LB broth (volume ratio 1:100). These cultures were grown for a few hours until they reached the exponential phase (OD600˜0.4-0.6) before being added to 10 mL of soft M63 agar at a final cell density of 10^7 CFUs/mL, or 10^8 CFUs total in 10 mL. The M63 soft agar was composed of 2 g/L of (NH4)2SO4 (EMD MilliporeSigma), 13.6 g/L of KH2PO4 (Fisher), 40 mg/L of each of the 20 common amino acids, 0.2% glucose (Sigma), 0.00005% w/v thiamine hydrochloride (Sigma), and 0.65% w/v bacteriological-grade agar (Apex Bioresearch). […] Upon solidification, 10 μL of purified cloacaenodin in water at two-fold dilutions were then spotted onto the agar and allowed to dry. The plates were incubated overnight at the strains' recommended temperatures and analyzed the next morning for activity. The MIC is defined as the last dilution where a spot was visible.
(§2) Twelve (12) clinical isolates were tested at the Broad Institute of MIT and Harvard, with a subset of strains from BioProject PRJNA292902, BioProject PRJNA271899, BioProject PRJNA201976, and BioProject 219285. The strains were tested following the same spot-on-lawn assay protocol described above, but with BD Bacto Agar used instead. All cloacaenodin-treated isolates were incubated at 37° C. overnight, and the assay was repeated at least three times (on biological replicates) for each of the twelve (12) strains. We defined a strain to be susceptible if it was reliably susceptible in at least three biological replicates.

[2] = test system: Enterobacter cloacae UCI102; format: cell-based
Procedure: as §1, §2

[3] = test system: Enterobacter kobei MGH178; format: cell-based
Procedure: as §1, §2

[4] = test system: Enterobacter hormaechei UCI35; format: cell-based
Procedure: as §1, §2

[5] = test system: Enterobacter asburiae UCI193; format: cell-based
Procedure: as §1, §2

[6] = biological target: T1, Elastase (Sus scrofa, UniProt P00772); assay: Protease digestion, elastase; format: in vitro ADME; conditions: 50 μM peptide, 25° C., about 1 hour, LC-MS
T1 construct: purchased Promega
T1 sequence (P00772 27-266): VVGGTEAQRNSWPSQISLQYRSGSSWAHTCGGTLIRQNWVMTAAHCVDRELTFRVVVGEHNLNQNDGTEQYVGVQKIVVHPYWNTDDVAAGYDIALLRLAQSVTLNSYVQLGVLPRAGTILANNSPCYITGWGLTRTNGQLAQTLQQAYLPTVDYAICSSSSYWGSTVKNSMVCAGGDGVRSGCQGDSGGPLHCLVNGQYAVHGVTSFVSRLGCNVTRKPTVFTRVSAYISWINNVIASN
Procedure: Elastase (Promega) was resuspended in 50 mM Tris pH 9.0. The enzyme was added to 50 μM peptide samples at a final enzyme concentration of about 0.04 mg/mL in a buffer of 50 mM Tris, pH 9. The reactions were then allowed to incubate at 25° C. for about 1 hour before quenching with 1% formic acid. An aliquot was then injected into LC-MS for analysis.

[7] = test system: Enterobacter cloacae UCI102; assay: MIC in M63 media (liquid); format: cell-based; conditions: clinical isolate Enterobacter cloacae UCI102
Procedure: For liquid inhibition assays, 5 mL LB broth was inoculated with 40-50 μL of an overnight culture of E. cloacae or E. amnigenus. […] The plate was shaken at 30° C. at 250 rpm for E. cloacae, and 37° C. at 250 rpm for E. amnigenus. The OD600 was measured at 8-hour and 16-hour increments. The MIC is defined as the lowest concentration of cloacaenodin for which growth (as assessed by the OD600) was inhibited.

[8] = test system: Enterobacter cloacae ATCC 13047; format: cell-based
Procedure: as §1

[9] = test system: Enterobacter mori DSM 26271; format: cell-based
Procedure: as §1

[10] = test system: Enterobacter amnigenus ATCC 33072; format: cell-based
Procedure: as §1

[11] = test system: Enterobacter asburiae DSM 17506; format: cell-based
Procedure: as §1

[12] = test system: Enterobacter strains; assay: Spot-on-lawn assay, CDC & FDA Antibiotic Resistance Isolate Bank panels; format: cell-based; conditions: three of the four Enterobacter strains of the CRE/BIT panels, M63 agar
Description: (§3) FIG. 42. Spot-on-lawn assays of tested clinical isolates treated with cloacaenodin in M63 agar. From the initial concentration shown to the left of the curved arrow and in the direction of the curved arrow, two-fold serial dilutions of cloacaenodin were spotted. The straight arrows point to the last visible spot on the plate which corresponds to the recorded minimal inhibitory concentration (MIC). Spot 8 is pure water in all plates. AR Bank #0132, AR Bank #0136, AR Bank #0144, and AR Bank #0154 are from the CRE panel. AR Bank #0001 and AR Bank #0002 are from the BIT panel.
(§4) Two panels from the CDC & FDA Antibiotic Resistance Isolate Bank were used: the Enterobacterales Carbapenemase Diversity (CRE) panel and the Enterobacterales Carbapenem Breakpoint (BIT) panel.^81 These panels represent strains with resistance to carbapenems, which are last resort antibiotics: there is an urgent need of new treatments of infections with these strains.
(§5) We tested 6 strains: 4 Enterobacter strains, 1 Kluyvera strain, and 1 Escherichia coli strain.

[13] = test system: Kluyvera strain; assay: as above; format: cell-based; conditions: carbapenem-resistant CRE/BIT panel strain, M63 agar
Description: as §3, §4, §5

[14] = test system: E. coli MG1655; assay: Spot-on-lawn assay in M63 agar; format: cell-based, Escherichia coli; conditions: purified cloacaenodin in water
Procedure: as §1

[15] = test system: B. subtilis 168; assay: Spot-on-lawn assay in M63 agar; format: cell-based, Bacillus subtilis; conditions: purified cloacaenodin in water
Procedure: as §1

[16] = biological target: T2, trypsin (Sus scrofa, UniProt P00761); assay: Protease digestion, trypsin; format: in vitro ADME; conditions: 50 μM peptide, room temperature, 30 minutes to 1 hour, LC-MS
T2 construct: purchased Promega
T2 sequence (P00761 9-231): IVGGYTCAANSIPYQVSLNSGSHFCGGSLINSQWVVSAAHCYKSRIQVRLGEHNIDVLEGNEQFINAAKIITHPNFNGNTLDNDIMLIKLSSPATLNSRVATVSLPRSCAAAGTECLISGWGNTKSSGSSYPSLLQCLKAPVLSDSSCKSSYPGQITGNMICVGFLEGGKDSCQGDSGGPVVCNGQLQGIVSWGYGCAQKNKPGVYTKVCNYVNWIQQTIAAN
Procedure: Sequencing grade trypsin (Promega) was added to 50 μM peptide samples at a 1:100 trypsin: peptide weight ratio in a buffer of 50 mM ammonium bicarbonate. The reaction was allowed to proceed at room temperature for 30 minutes to 1 hour and then quenched by 1% formic acid. An aliquot was then injected onto LC-MS for analysis.

[17] = listed as Threaded cloacaenodin
[18] = listed as threaded cloacaenodin
[19] = spot-on-lawn, M63 agar, purified cloacaenodin in water

In the case of `CC[C@H](C)[C@@H]1NC(=O)[C@H](CCCNC(=N)N)NC(=O)[C@H](CC(=O)O)NC(=O)[C@H](C(C)C)NC(=O)[C@H](CO)NC(=O)[C@H](Cc2c[nH]cn2)NC(=O)CNC(=O)CC[C@@H](C(=O)N[C@@H](Cc2ccc(O)cc2)C(=O)N[C@@H](Cc2ccccc2)C(=O)NCC(=O)N2CCC[C@H]2C(=O)N2CCC[C@H]2C(=O)NCC(=O)N[C@@H](CC(C)C)C(=O)N2CCC[C@H]2C(=O)NCC(=O)N2CCC[C@H]2C(=O)N[C@H](C(=O)N[C@@H](CC(C)C)C(=O)N[C@@H](Cc2ccccc2)C(=O)N[C@@H](Cc2ccc(O)cc2)C(=O)N[C@@H](CO)C(=O)O)C(C)C)NC(=O)[C@@H]2CCCN2C1=O` [cloacaenodin] (HELM PEPTIDE1{G.H.S.V.D.R.I.P.E.Y.F.G.P.P.G.L.P.G.P.V.L.F.Y.S}$PEPTIDE1,PEPTIDE1,1:R1-9:R3$$$V2.0; C-terminus assumed), the “MIC in M63 media” value [1] was 2 µM (≈ 5.17 µg/mL), the “MIC in M63 media” value [2] was 0.5 µM (≈ 1.29 µg/mL) and the “MIC in M63 media” value [3] was 1 µM (≈ 2.58 µg/mL). For the same compound, the “MIC in M63 media” value [4] was 1 µM (≈ 2.58 µg/mL), the “MIC in M63 media” value [5] was 2 µM (≈ 5.17 µg/mL) and the “strain susceptible to cloacaenodin” value ([5]; clinical strain UCI193, reliably susceptible in at least three biological replicates) was “* UCI193”. For the same compound, the proteolysis by elastase [6, 17] was “resistant to elastase digestion”, the proteolysis by elastase [6, 18] was “remained resistant to proteolysis” and the “MIC in M63 media” value [7] was “(agar)/230 nM”. The “MIC in M63 media” value ([8]; ATCC 13047) was 7.5 µM (≈ 19.4 µg/mL), the “strain susceptible to cloacaenodin” value ([8]; Enterobacter cloacae subsp. cloacae ATCC 13047) was “* Enterobacter cloacae subsp. cloacae” and the “activity against Enterobacter cloacae” value ([8]; peptide at a concentration of 15 μM, listed as threaded cloacaenodin) was “has activity”. For the same compound, the “antimicrobial activity (zones of inhibition)” value [8, 19] was “zones of inhibition in the low micromolar range”, the “MIC in M63 media” value ([9]; DSM 26271) was 3.8 µM (≈ 9.82 µg/mL) and the “strain susceptible to cloacaenodin” value ([9]; Enterobacter mori DSM 26271) was “* Enterobacter mori”. For the same compound, the “antimicrobial activity (zones of inhibition)” value [9, 19] was “zones of inhibition in the low micromolar range”, the “MIC in M63 media” value ([10]; ATCC 33072) was 1.9 µM (≈ 4.91 µg/mL) and the “strain susceptible to cloacaenodin” value ([10]; Enterobacter amnigenus ATCC 33072) was “* Enterobacter amnigenus”. For the same compound, the “antimicrobial activity (zones of inhibition)” value [10, 19] was “zones of inhibition in the low micromolar range”, the “MIC in M63 media” value ([11]; DSM 17506) was 1.9 µM (≈ 4.91 µg/mL) and the “antimicrobial activity (zones of inhibition)” value [11, 19] was “zones of inhibition in the low micromolar range”. For the same compound, the antimicrobial activity [12] was “single digit micromolar”, the antimicrobial activity [13] was “single digit micromolar” and the “antimicrobial activity (zones of inhibition)” value [14] was “no observed activity”. The “antimicrobial activity (zones of inhibition)” value [15] was “no observed activity”, the proteolysis by trypsin [16, 17] was “resistant to trypsin digestion” and the proteolysis by trypsin [16, 18] was “remained resistant to proteolysis”.
